Measurements taken from patent publication US20150031686A1, “PHENYL-OXAZOLYL DERIVATIVES, PREPARATION METHOD THEREOF, AND RELATED APPLICATION OF THE PHENYL-OXAZOLYL DERIVATIVES AS AN IMPDH INHIBITOR” (INSTITUTE OF MEDICINAL BIOTECHNOLOGY, CHINESE ACADEMY OF …, priority 2012, published 2015).
Values after ≈ are worked out from the molar mass of the structure shown.

tested on: Coxsackie virus type B3 (COX-B3); experiment: Anti-Coxsackie virus type B3 (COX-B3) activity, CPE in Vero cells; assay type: cell-based; conditions: Reed-Muench
Procedure: With Vero (African green monkey kidney) cells as viral hosts, inhibitory effects of the compounds of present invention on the grades of pathological lesions by coxsackievirus B3 (COX-B3), B6 (COX-B6) viruses in Vero cells were determined. The measured results of viral inhibitory activity of the compounds are shown in Table 3 and Table 4; wherein RBV is the control drug ribavirin. The inhibitory activities of the measured compounds against coxsackievirus B3, B6 were stronger than the control.
Screening of Anti-B3, B6 Type Coxsackie Viruses (COX-B3, COX-B6) Activity of the Samples
Prepare stock solutions of COX-B3 (or COX-B6) virus strains as well as tested compounds in DMSO before use. Before tests, dilute the stock solution with culture solution into a certain concentration and then dilute 3 times to make a total of eight dilutions. Use ribavirin (RBV) as positive control. Test procedures are as follows: seed Vero cells into 96-well culture plates, infect with 10^−5 Coxsackie virus of B3 (or B6) type, 24 hours later; adsorb subsequently for 2 hours, then discard the virus solution, add in the sample compounds and the positive control according to the abovementioned dilutions, set cell control wells and virus control wells simultaneously. When the cytopathic effect (CPE) of cells in the virus control wells reach 4+, observe CPE of the cells in each group. Use Reed-Muench method to calculate 50% inhibitory concentration (IC50) of the sample compounds against coxsackie virus B3 (or B6) type.

IC50 | SMILES | IC50, anti-Coxsackie virus type B3 (COX-B3)
0.45 µg/mL (≈ 1.33 µM) | COc1cc(NCc2nc3ccccc3s2)ccc1-c1cnco1 [Compound 8, N-(benzothiazol-2-ylmethyl)-3-methoxy-4-(oxazol-5-yl) aniline] | 
0.23 µg/mL (≈ 0.732 µM) | COc1cc(N(C)Cc2csc(C)c2)ccc1-c1cnco1 [Compound 12, N-methyl-N-(5-methylthien-3-ylmethyl)-3-methoxy-4-(oxazol-5-yl) aniline] | 
 | C#CCN(Cc1cc(CC)sc1C)c1ccc(-c2cnco2)c(OC)c1 [Compound 13, N-(5-ethyl-2-methylthien-3-ylmethyl)-N-(3-methoxy-4-oxazole-5-phenyl) propyn-2-ylamine] | 0.30 µg/mL (≈ 0.819 µM)
0.44 µg/mL (≈ 1.37 µM) | COc1cc(NCc2csc(Cl)c2)ccc1-c1cnco1 [Compound 14, N-(5-chlorothien-3-ylmethyl)-3-methoxy-4-(oxazol-5-yl) aniline] | 
0.46 µg/mL (≈ 1.26 µM) | COc1cc(NCc2csc(Br)c2)ccc1-c1cnco1 [Compound 15, N-(5-bromothien-3-ylmethyl)-3-methoxy-4-(oxazol-5-yl) aniline] | 
0.45 µg/mL (≈ 1.24 µM) | COc1cc(NCc2csc(-c3ccccc3)c2)ccc1-c1cnco1 [Compound 16, N-(5-phenylthien-3-ylmethyl)-3-methoxy-4-(oxazol-5-yl) aniline] | 
2.56 µg/mL (≈ 9 µM) | COc1cc(NCc2cncn2C)ccc1-c1cnco1 [Compound 17, N-(1-methyl-1H-imidazol-5-ylmethyl)-3-methoxy-4-(oxazol-5-yl) aniline] | 
0.25 µg/mL (≈ 0.79 µM) | COc1cc(CNc2ccc(-c3cnco3)c(OC)c2)cs1 [Compound 18, N-(5-methoxy-thien-3-ylmethyl)-3-methoxy-4(oxazol-5-yl) aniline] | 
12.8 µg/mL (≈ 43 µM) | COc1cc(/N=C/c2csc(C)c2)ccc1-c1cnco1 [Compound 19, N-(5-methylthien-3-ylmethylene)-3-methoxy-4-(oxazol-5-yl) aniline] | 
0.76 µg/mL (≈ 2.54 µM) | COc1ccc(-c2cnco2)cc1NCc1c(C)noc1C [Compound 23, N-(3,5-dimethylisoxazol-4-ylmethyl)-2-methoxy-5-(oxazol-5-yl) aniline] | 
0.57 µg/mL (≈ 1.7 µM) | COc1ccc(-c2cnco2)cc1NCc1ccc(CCl)s1 [Compound 24, N-(5-chloromethylthien-2-ylmethyl)-2-methoxy-5-(oxazol-5-yl) aniline] | 
0.53 µg/mL (≈ 1.4 µM) | COc1ccc(-c2cnco2)cc1NCc1ccc(CBr)s1 [Compound 25, N-(5-bromomethylthien-2-ylmethyl)-2-methoxy-5-(oxazol-5-yl) aniline] | 
0.57 µg/mL (≈ 1.57 µM) | COc1ccc(-c2cnco2)cc1NCc1ccc(-c2ccccc2)s1 [Compound 26, N-(5-phenylthien-2-ylmethyl)-2-methoxy-5-(oxazol-5-yl) aniline] | 
1.47 µg/mL (≈ 4.42 µM) | COc1ccc(-c2cnco2)cc1NCc1c(C)nn(C)c1Cl [Compound 27, N-(5-chloro-1,3-dimethyl-1H-pyrazol-4-ylmethyl)-2-methoxy-5-(oxazol-5-yl) aniline] | 
1.23 µg/mL (≈ 3.54 µM) | COc1ccc(-c2cnco2)cc1NCc1cnn(-c2ccccc2)n1 [Compound 28, N-(2-phenyl-2H-1,2,3-triazol-4-ylmethyl)-(2-methoxy-5-oxazole-5-yl) aniline] | 
10.7 µg/mL (≈ 33.5 µM) | COc1ccc(-c2cnco2)cc1/N=C/c1cc(Cl)cs1 [Compound 29, N-(4-chlorothien-2-ylmethylene)-2-methoxy-5-(oxazol-5-yl)-aniline] | 
0.54 µg/mL (≈ 1.46 µM) | COc1ccc(-c2cnco2)cc1NCc1cc2cc(Cl)ccc2s1 [Compound 30, N-(5-chlorobenzothien-2-ylmethyl)-2-methoxy-5-(oxazol-5-yl) aniline] | 
0.88 µg/mL (≈ 3.07 µM) | COc1ccc(-c2cnco2)cc1NCc1ccsc1 [Compound 31, N-(thien-3-ylmethyl)-2-methoxy-5-(oxazol-5-yl) aniline] | 
0.68 µg/mL (≈ 1.91 µM) | CCC(=O)N(Cc1csc(C)c1)c1cc(-c2cnco2)ccc1OC [Compound 32] | 
0.64 µg/mL (≈ 2.12 µM) | COc1ccc(-c2cnco2)cc1NCC1CCN(C)CC1 [Compound 33, N-(2-methoxy-5-oxazol-5-ylphenyl)-1-methylpiperidin-4-yl methylamine] | 
